Results on 8 compounds are retold here after US20110039921A1 (priority 2007, published 2011).

Like-named read-outs stand apart in the source and are kept apart here.

What all share (test): cells
Assay [1] deals with A549: the human lung adenocarcinoma cell strain. The class given is cell-based. As to conditions: read-out: IC50(M) A549. The procedure: (§1) Experiment 1. Cytotoxicity Screening Assay at Cell Level of Compounds of this Invention
(§2) Tumor cells at log phase were incubated on 96-well plates at a density of 1˜1.2×10^4 cells/ml, 100 μl/well. 24 h later, treatment cells were exposed to the tested agents at different concentrations. Each tested agents had 4˜5 doses, and each dose had at least 3 parallel wells. Control cells were exposed to solvents in the same volume with treat agents. Cells were cultured at 37° C. in a cell incubator with 5% CO2 and 95% air atmosphere. After 4 days of culture, the incubation medium was removed, then 200 μl 0.2% MTT (prepared by RPMI 1640) was added to each well and the plates were incubated at 37° C. for 4 hours. The supernatant was discarded and dissolved the resulting formazen product with 200 μl DMSO in each well. The absorbance at a reference wavelength of 450 nm and a test wavelength of 570 nm was read on a microplate reader after tenderly shaking. Calculated drug inhibitory rate using the following equation and IC50, taking solvent exposure tumor cells as control cells.

Assay [2] concerns KB/V: the vincristine-resistant substrain of KB. The class given is cell-based, human. As to conditions: read-out: IC50(M) KB/V. The procedure: as §1, §2
Assay [3] relates to A549/Taxol: the taxol-resistant substrain of A549. Format: cell-based, human. Particulars: read-out: IC50(M) A549/Taxol. The procedure:
as §1, §2

Assay [4] has as its system KB: the human oral epithelium cancer cell strain. Format: cell-based. Particulars: read-out: IC50(M) KB. The protocol:
as §1, §2

The mark [5] stands for this setting: Table 1, MTT, 4 days of culture.

For `C/C=C(\C)C(=O)N[C@@H](c1ccccc1)[C@@H](O)C(=O)O[C@H]1C[C@@]2(O)[C@@H](OC(=O)c3cccc(N=[N+]=[N-])c3)[C@@H]3[C@]4(OC(C)=O)CO[C@@H]4C[C@H](O)[C@@]3(C)C(=O)[C@H](OC(=O)CC)C(=C1C)C2(C)C` [Example 2, 2-(3-azidobenzoyl)-10-propionyl-cephalomannine], the IC50 in assay [1] (setting [5]) was 8.79e-08 M; in assay [2] (setting [5]), 1.53e-07 M; in assay [3] (setting [5]), above 1e-06 M.
Turning to `C/C=C(\C)C(=O)N[C@@H](c1ccccc1)[C@@H](O)C(=O)O[C@H]1C[C@@]2(O)[C@@H](OC(=O)c3ccccc3)[C@@H]3[C@]4(OC(C)=O)CO[C@@H]4C[C@H](O)[C@@]3(C)C(=O)[C@H](OC(=O)CC)C(=C1C)C2(C)C` [Example 4, 10-propionyl-cephalomannine], the IC50 in assay [1] (setting [5]) is 2.01e-07 M; in assay [4] (setting [5]), 9.74e-09 M; in assay [2] (setting [5]), 4.85e-07 M; in assay [3] (setting [5]), 4.21e-07 M.
Take `C/C=C(\C)C(=O)N[C@@H](c1ccccc1)[C@@H](O)C(=O)O[C@H]1C[C@@]2(O)[C@@H](OC(=O)c3cccc(OC)c3)[C@@H]3[C@]4(OC(C)=O)CO[C@@H]4C[C@H](O)[C@@]3(C)C(=O)[C@H](OC(C)=O)C(=C1C)C2(C)C` [Example 6, 2-(3-methoxybenzoyl)-cephalomannine]: the IC50 in assay [1] (setting [5]) is 2.1e-07 M; in assay [4] (setting [5]), 1.44e-07 M; in assay [2] (setting [5]), 8.94e-07 M; in assay [3] (setting [5]), above 1e-06 M.
With `CC=C(C)C(=O)NC(c1ccccc1)C(O)C(=O)OC1CC2(O)C(OC(=O)c3cccc(OC)c3)C3C4(OC(C)=O)COC4CC(O)C3(C)C(=O)C(OC(=O)CC)C(=C1C)C2(C)C` (centres unmarked) [Example 3, 2-(3-methoxybenzoyl)-10-propionyl-cephalomannine], the values for the IC50 in assay [1] (setting [5]), in assay [2] (setting [5]) and in assay [3] (setting [5]) were 7.04e-08 M, 8.02e-07 M and above 1e-06 M, respectively.
As to `CC=C(C)C(=O)NC(c1ccccc1)C(O)C(=O)OC1CC2(O)C(OC(=O)c3cccc(OC)c3)C3C4(OC(C)=O)COC4CC(OC(=O)CC)C3(C)C(=O)C(O)C(=C1C)C2(C)C` (centres unmarked) [Example 7, 2-(3-methoxybenzoyl)-7-propionyl-10-deacetyl-cephalomannine], the IC50 in assay [1] (setting [5]) was 2.51e-07 M; in assay [4] (setting [5]), 8.78e-09 M; in assay [2] (setting [5]), 2.79e-07 M; in assay [3] (setting [5]), above 1e-06 M.
`C/C=C(\C)C(=O)N[C@@H](c1ccccc1)[C@@H](O)C(=O)O[C@H]1C[C@@]2(O)[C@@H](OC(=O)c3ccccc3)[C@@H]3[C@]4(OC(C)=O)CO[C@@H]4C[C@H](O)[C@@]3(C)C(=O)[C@H](OC(C)=O)C(=C1C)C2(C)C` [cephalomannine, reference compound]: the IC50 in assay [1] (Homo sapiens, A549, 96 h) was 1.33e-07 M; in assay [4] (Homo sapiens, KB, 96 h), 5.18e-09 M; in assay [2] (Homo sapiens, KBV, 96 h), 1e-06 M; in assay [3] (Homo sapiens, A549/Taxol, 96 h), above 1e-06 M.
Regarding `C/C=C(\C)C(=O)N[C@@H](c1ccccc1)[C@@H](O)C(=O)O[C@H]1C[C@@]2(O)[C@@H](OC(=O)c3cccc(N=[N+]=[N-])c3)[C@@H]3[C@]4(OC(C)=O)CO[C@@H]4C[C@H](O)[C@@]3(C)C(=O)[C@H](OC(C)=O)C(=C1C)C2(C)C` [Example 5, 2-(3-azidobenzoyl)-cephalomannine], the IC50 in assay [1] (setting [5]) is above 1e-06 M; in assay [4] (setting [5]), 5.9e-10 M; in assay [2] (setting [5]), 2.23e-07 M; in assay [3] (setting [5]) it was above 1e-06 M.
Take `C/C=C(\C)C(=O)N[C@@H](c1ccccc1)[C@@H](O)C(=O)O[C@H]1C[C@@]2(O)[C@@H](OC(=O)c3ccccc3)[C@@H]3[C@]4(OC(C)=O)CO[C@@H]4C[C@H](O)[C@@]3(C)C(=O)[C@H](O)C(=C1C)C2(C)C` [Example 1, 10-deacetyl-cephalomannine]: the IC50 in assay [1] (setting [5]), in assay [2] (setting [5]) and in assay [3] (setting [5]) was above 1e-06 M each time.
